Reference: patent US12611372B2, “Strain and use thereof” (LG HOUSEHOLD & HEALTH CARE LTD., priority 2021, dated 2026)

Tests used:
[1] = target: T1, TRPV1 (transient receptor potential vanilloid-1) (Homo sapiens, UniProt Q8NER1); assay: TRPV1 activity, calcium influx detection assay in HEK 293T-TRPV1 cells; assay type: cell-based; settings: untreated group 83.57
T1 construct: expressed in transfected cells; host or cells: HEK 293T-TRPV1 cells

Raw 264.7 cells = assay: NO production inhibitory ability, LPS-treated cells, NO assay kit; assay type: cell-based; settings: positive control, 20 μg/mL, LPS 1 μg/mL, 24 hours
Experimental: Raw 264.7 cells were diluted for each concentration, treated with 1 μg/mL of LPS, and cultured for 24 hours. The NO production inhibitory ability was evaluated as follows using a NO assay kit (Table 13).
The confirmation of skin soothing and inflammation improvement effects was performed in the same manner as in Example 6-1 (Table 14).

B16f10 melanocytes = assay: Melanin production inhibition; assay type: cell-based; settings: treatment concentration 0.02%; 72 hours
Experimental: Samples were diluted in B16f10 melanocytes at each concentration, treated for 72 hours, and cultured, and then, the amount of melanin pigment present in melanocytes was quantified. The melanin production inhibitory rate was calculated in comparison to the total protein amount, and the values thereof were measured as percentage (%) based on the DMSO control (DMEM containing 0% serum) set to 100%.
In order to measure the degree of decrease in the amount of melanin pigment in the Saccharomyces cerevisiae KCTC14780BP fermented product and the fraction containing the yeast polypeptide, the inhibition rate of melanin production was compared upon treatment with the positive control group (Arbutin 200 ppm (Lim Y. J. et al., 2009, Arch Pharm Res.)), the Saccharomyces cerevisiae KCTC14780BP fermented product and the fraction containing the yeast polypeptide (Table 15).

human dermal fibroblast = assay: Collagen synthesis rate, Procollagen Type I C-peptide (PIP) EIA kit; assay type: cell-based; settings: positive control, 48 hours
Experimental: Samples were treated with human dermal fibroblast for 48 hours at each concentration. The collagen synthesis rate was measured using a Procollagen Type I C-peptide (PIP) EIA kit. The collagen synthesis efficacy of the samples was calculated and measured as values in comparison with the negative control group (DMEM containing 0% serum).
In order to confirm the collagen synthesis enhancement effect of the Saccharomyces cerevisiae KCTC14779BP fermented product, the collagen synthesis rate was compared for normal cells, and normal cells treated with TGF-β, Saccharomyces cerevisiae KCTC14779BP fermented product, and normal yeast (Saccharomyces cerevisiae KCTC7296) fermented product (Table 3).
The confirmation of collagen synthesis enhancement effect was performed in the same manner as in Example 3-1, and the collagen synthesis rate was compared for normal cells, and normal cells treated with TGF-β, Saccharomyces cerevisiae KCTC14780BP fermented product, and fraction containing the yeast polypeptide (Table 4).
The confirmation of collagen synthesis enhancement effect was performed in the same manner as in Example 3-1, and the collagen synthesis rate was compared for normal cells, and normal cells treated with TGF-β, Lactobacillus fructivorans KCTC14776BP fermented product, and normal Lactobacillus (Lactobacillus plantarum KCTC3108) fermented product (Table 5).
The confirmation of collagen synthesis enhancement effect was performed in the same manner as in Example 3-1, and the collagen synthesis rate was compared for normal cells, and normal cells treated with TGF-β, Bacillus paramycoides KCTC14777BP fermented product, and normal Bacillus (Bacillus megaterium KCTC3007) fermented product (Table 6).

human keratinocyte HaCaT = assay: Hyaluronic acid synthesis, Quantikine ELISA Hyaluronan; assay type: cell-based; settings: positive control, 1 ppm, 72 hours
Experimental: Samples were treated with human keratinocyte HaCaT for 72 hours at each concentration. Hyaluronic acid synthesis was compared with the control group (DMEM treatment containing 0% serum) using Quantikine ELISA Hyaluronan from R&D Systems to quantify the moisturizing ability (Table 7).
The confirmation of hyaluronic acid synthesis enhancement effect was performed in the same manner as in Example 4-1 (Table 8).
The confirmation of hyaluronic acid synthesis enhancement effect was performed in the same manner as in Example 4-1 (Table 9).
The confirmation of hyaluronic acid synthesis enhancement effect was performed in the same manner as in Example 4-1 (Table 10).
The confirmation of hyaluronic acid synthesis enhancement effect was performed in the same manner as in Example 4-1 (Table 11).

[2] = DPPH free radical scavenging; assay type: biochemical; settings: 0.15 mM DPPH, room temperature, 30 minutes, absorbance at 540 nm
loricrin (LOR) = assay: Loricrin (LOR) gene expression in TNF-a-treated HaCaT cells, qPCR; assay type: cell-based, human; settings: Control: TNF-a 10 pg/mL alone; untreated group = 1
Experimental: After treating HaCaT cells with TNF-a (10 pg/mL) for 3 hours, samples were diluted for each concentration, mixed with TNF-a-treated HaCaT cells, and cultured for 24 hours. The degree of increase in the expression of loricrin (LOR), a major component of the skin barrier, was quantified using qPCR (Table 18).

T1 sequence (Q8NER1 whole entry, species assumed): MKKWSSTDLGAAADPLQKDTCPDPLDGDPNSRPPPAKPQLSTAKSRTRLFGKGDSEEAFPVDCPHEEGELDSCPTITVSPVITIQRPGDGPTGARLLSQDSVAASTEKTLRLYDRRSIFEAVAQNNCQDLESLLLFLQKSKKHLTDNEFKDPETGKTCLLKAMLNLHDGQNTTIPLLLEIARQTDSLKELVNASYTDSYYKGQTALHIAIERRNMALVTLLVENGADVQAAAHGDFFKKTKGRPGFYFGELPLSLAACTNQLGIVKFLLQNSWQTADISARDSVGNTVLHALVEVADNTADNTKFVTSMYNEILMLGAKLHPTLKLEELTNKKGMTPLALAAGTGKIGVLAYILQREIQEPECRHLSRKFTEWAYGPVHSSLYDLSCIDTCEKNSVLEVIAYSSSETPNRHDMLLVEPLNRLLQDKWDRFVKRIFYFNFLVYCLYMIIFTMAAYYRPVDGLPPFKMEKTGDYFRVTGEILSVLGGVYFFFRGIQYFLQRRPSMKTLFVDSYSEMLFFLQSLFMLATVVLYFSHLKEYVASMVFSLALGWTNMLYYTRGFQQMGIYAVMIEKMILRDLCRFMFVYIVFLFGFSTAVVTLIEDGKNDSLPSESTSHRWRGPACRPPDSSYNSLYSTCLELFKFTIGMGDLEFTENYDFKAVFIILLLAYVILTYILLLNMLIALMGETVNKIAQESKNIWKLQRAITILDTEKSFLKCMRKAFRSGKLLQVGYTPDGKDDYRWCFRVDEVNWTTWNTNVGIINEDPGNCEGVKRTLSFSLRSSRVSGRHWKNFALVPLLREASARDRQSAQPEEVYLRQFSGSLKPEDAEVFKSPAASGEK

For COc1cc(CNC(=O)CCCC/C=C/C(C)C)ccc1O [Capsaicin], which “TRPV1 Activity (RFU, relative fluorescent unit)” value ([1]; 10 μM, TRPV1 activity induction) is on record?
The value was 101.86 RFU.

For Capsazepin, which “TRPV1 Activity (RFU, relative fluorescent unit)” value ([1]; 3 μM, TRPV1 activity inhibition) is on record?
The value was 75.91 RFU.

Which “NO production inhibitory ability (% of control)” value (Raw 264.7 cells; Table 13) does the source give for CNC(=N)NCCC[C@H](N)C(=O)O [L-NMMA] here?
The value was 47.9 % of control.

What about the “NO production inhibitory ability (% of control)” value (Raw 264.7 cells; Table 14) of the same molecule?
The value was 47.9 % of control.

For OC[C@H]1O[C@@H](Oc2ccc(O)cc2)[C@H](O)[C@@H](O)[C@@H]1O [Arbutin], which “Melanin Production Inhibition (%)” value (B16f10 melanocytes) is on record?
Its value is 56.4%.

With TGF-β as the molecule, how does the “Collagen Synthesis Rate (% of control)” value (human dermal fibroblast; Table 3, 10 ppb, vs negative control (DMEM 0% serum)) read?
The value was 27.55 % of control.

And the “Collagen Synthesis Rate (% of control)” value (human dermal fibroblast; Table 4, 10 ng/mL)?
Its value is 23.92 % of control.

What about the “Collagen Synthesis Rate (% of control)” value (human dermal fibroblast; Table 5, 10 ppb) of the same molecule?
The value was 24.6 % of control.

And the “Collagen Synthesis Rate (% of control)” value (human dermal fibroblast; Table 6, 10 ppb)?
The value was 20.84 % of control.

Which “Hyaluronic Acid Synthesis Rate (% of control)” value (human keratinocyte HaCaT; Table 7) does the source give for CC1=C(/C=C/C(C)=C/C=C/C(C)=C/C(=O)O)C(C)(C)CCC1 [Retinoic acid] here?
The value was 13.6 % of control.

And the “Hyaluronic Acid Synthesis Rate (% of control)” value (human keratinocyte HaCaT; Table 8)?
Its value is 17.8 % of control.

And the “Hyaluronic Acid Synthesis Rate (% of control)” value (human keratinocyte HaCaT; Table 9)?
Its value is 27.6 % of control.

And the “Hyaluronic Acid Synthesis Rate (% of control)” value (human keratinocyte HaCaT; Table 10)?
The value was 22.0 % of control.

What about the “Hyaluronic Acid Synthesis Rate (% of control)” value (human keratinocyte HaCaT; Table 11) of the same molecule?
Its value is 15.4 % of control.

For O=C1O[C@H]([C@@H](O)CO)C(O)=C1O [Vitamin C], which “IC 50 (%)” value [2] is on record?
Its value is 0.000606 ± 0.00006%.

Which “LOR Gene Expression (Relative mRNA level, of control)” value (loricrin (LOR)) does the source give for TNF-a here?
Its value is 0.39.
